ChEMBL document CHEMBL1130528, “Synthesis of inhibitors of glutamyl-tRNA synthetase” (Bioorg Med Chem Lett, 1997)

Target: Glutamate--tRNA ligase (Escherichia coli) (UniProt P04805)
Assay: Compound was tested for the inhibition of Escherichia coli glutamyl-t-RNA synthetase; NI means No inhibition; call rule not given here

Sequence of Glutamate--tRNA ligase (Escherichia coli) (P04805 whole entry, looked up): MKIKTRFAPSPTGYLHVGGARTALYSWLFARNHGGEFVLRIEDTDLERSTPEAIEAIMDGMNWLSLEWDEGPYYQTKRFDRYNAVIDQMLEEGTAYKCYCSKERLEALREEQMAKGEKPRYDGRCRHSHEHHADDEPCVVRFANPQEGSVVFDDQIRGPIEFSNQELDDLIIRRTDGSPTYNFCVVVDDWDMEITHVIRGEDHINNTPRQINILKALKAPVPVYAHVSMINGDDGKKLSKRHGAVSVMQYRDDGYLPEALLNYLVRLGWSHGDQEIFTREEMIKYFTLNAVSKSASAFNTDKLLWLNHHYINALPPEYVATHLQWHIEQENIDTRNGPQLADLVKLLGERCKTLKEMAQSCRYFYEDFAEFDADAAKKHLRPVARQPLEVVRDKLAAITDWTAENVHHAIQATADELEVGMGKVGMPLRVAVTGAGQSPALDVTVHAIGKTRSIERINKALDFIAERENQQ

CCCCCCCCOC(=O)C(N)CCC(=O)O (stereo unspecified)
Ki: Not Active
